Key:
HDAC 3 = HDAC 3 (Homo sapiens, UniProt O15379); details: cited from earlier work
[1] = tested on: MC38 murine colon carcinoma; assay: Example 1: tumor growth delay in MC38 syngeneic model, HBI-8000 at two doses alone and with PD-L1 inhibitor antibody; assay type: in vivo, C57BL/6 mice; details: for Median TTE: endpoint 1000 mm^3 or Day 47; for % TGD: versus vehicle
Procedure: In Example 1 HBI-8000 was tested in two doses as monotherapy and in two doses in combination with PD-L1 inhibitor antibody at 5 mg/kg. The experiment included a vehicle-treated group and a PD-L1 inhibitor antibody monotherapy group, which served as control groups for analysis of efficacy. Tumors were measured twice per week until the study was ended on Day 47. Each animal was euthanized when its tumor attained the endpoint tumor volume of 1000 mm^3 or on the final day of the study, whichever came first, and the time to endpoint (TTE) for each mouse was calculated. Treatment response was determined from an analysis of percent tumor growth delay (% TGD), defined as the percent increase in the median time to endpoint (TTE) for treated versus control mice; and by logrank significance of differences in survival among groups and regression responses.
Mice: Female C57BL/6 mice (Charles River Laboratories) were eight weeks old, with a body weight (BW) range of 15.4 to 22.0 grams on Day 1 of the study. The animals were fed ad libitum water (reverse osmosis, 1 ppm Cl), and NIH 31 Modified and Irradiated Lab Diet® consisting of 18.0% crude protein, 5.0% crude fat, and 5.0% crude fiber. The mice were housed on irradiated Enrich-o′cobs™ Laboratory Animal Bedding in static microisolators on a 12-hour light cycle at 20-22° C. (68-72° F.) and 40-60% humidity.
Tumor Cell Culture: MC38 murine colon carcinoma cells were maintained in Dulbecco's Modified Eagle Medium (DMEM) supplemented with 10% fetal bovine serum and 2 mM glutamine, 100 units/mL penicillin G sodium, 100 μg/mL streptomycin sulfate, and 25 μg/mL gentamicin. Cell cultures were maintained in tissue culture flasks in a humidified incubator at 37° C., in an atmosphere of 5% CO2 and 95% air.
Tumor Implantation: Cells were harvested during exponential growth, and resuspended in cold DMEM. Each mouse was inoculated subcutaneously in the right flank with 1×10^6 cells (0.1 mL of cell suspension). Tumors were calipered in two dimensions to monitor growth as their mean volume approached the desired 100-150 mm^3 range. Tumor burden was calculated using the formula:
[formula] • where w=width and l=length, in mm, of the tumor. Tumor weight may be estimated with the assumption that 1 mg is equivalent to 1 mm^3 of tumor volume. […]
Tumor Growth Delay: Tumors were measured using calipers twice per week, and each animal was euthanized when its tumor reached a volume of 1000 mm^3 or at the end of the study (D47), whichever came first. […] The time to endpoint (TTE) for analysis was calculated for each mouse by the following equation: […]

[2] = HBI-8000 20 mg/kg p.o. qd×21, alone or plus anti-PDL-1 5 mg/kg i.p. biwk×3
[3] = HBI-8000 50 mg/kg p.o. qd×21, alone or plus anti-PDL-1 5 mg/kg i.p. biwk×3

HDAC 3, sequence (O15379 whole entry): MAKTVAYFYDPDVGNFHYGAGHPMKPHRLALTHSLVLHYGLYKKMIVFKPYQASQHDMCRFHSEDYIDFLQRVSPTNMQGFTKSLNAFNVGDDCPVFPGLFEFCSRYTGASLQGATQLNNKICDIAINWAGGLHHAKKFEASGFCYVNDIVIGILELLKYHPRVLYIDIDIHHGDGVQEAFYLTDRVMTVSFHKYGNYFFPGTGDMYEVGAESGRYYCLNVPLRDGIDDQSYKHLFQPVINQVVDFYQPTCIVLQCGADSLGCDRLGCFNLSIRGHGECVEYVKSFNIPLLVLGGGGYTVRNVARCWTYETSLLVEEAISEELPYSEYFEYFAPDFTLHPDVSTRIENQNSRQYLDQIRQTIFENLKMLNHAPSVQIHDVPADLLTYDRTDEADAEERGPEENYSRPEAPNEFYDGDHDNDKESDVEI
HDAC 3, sequence (Q9Y618 395-489 partner limits assumed): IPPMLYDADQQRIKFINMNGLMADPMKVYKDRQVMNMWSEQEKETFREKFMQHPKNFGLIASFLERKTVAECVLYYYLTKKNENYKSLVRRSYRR

Question: With `Nc1cc(F)ccc1NC(=O)c1ccc(CNC(=O)/C=C/c2cccnc2)cc1` [HBI-8000, N-(2-amino-4-fluorophenyl)-4-[[[(2E)-1-oxo-3-(3-pyridinyl)-2-propen-1-yl]amino]methyl]benzamide] as the compound, how does the “inhibition of HDAC 3” value (HDAC 3) read?
Answer: low nanomolar concentrations

Question: And the “activity at HDAC 3 compared with Entinostat” value (HDAC 3; versus Entinostat)?
Answer: more active than Entinostat

Question: What about the “Median TTE” value [1, 2] of the same compound?
Answer: 18.9 days

Question: And the “% TGD” value [1, 2]?
Answer: −8%

Question: And the “Median TTE” value [1, 3]?
Answer: 22.8 days

Question: What about the “% TGD” value [1, 3] of the same compound?
Answer: 11%

From US11535670B2, “Combination therapies of HDAC inhibitors and PD-L1 inhibitors” (HUYABIO International, LLC, priority 2016, dated 2022)
